According to patent publication US7048951B1, “Systems and methods for topical treatment with nitric oxide” (Nioxx, LLC, priority 1998, dated 2006):
Like-named read-outs stand apart in the source and are kept apart here.

Assays:
[1] = pKa of acids; assay type: physicochemical
[2] = cited from earlier work
[3] = preservative concentration 0.18% in carbomer gel (propylparaben 0.05% listed in next row)
[4] = preservative concentration 0.01% in carbomer gel
[5] = preservative concentration 0.1% in carbomer gel

| acid strength relative to nitrous acid [1] | Compound | Appearance [2, 3] | Compatible [2, 3] | Appearance [2, 4] | Compatible [2, 4] | Appearance [2, 5] | Compatible [2, 5] |
| --- | --- | --- | --- | --- | --- | --- | --- |
| about 30 times | O=C(O)/C=C\C(=O)O [Maleic acid] | – | – | – | – | – | – |
| – | COC(=O)c1ccc(O)cc1 [Methylparaben] | Clear | Yes | – | – | – | – |
| – | O=C([O-])c1ccccc1.[Na+] [Sodium Benzoate] | – | – | Clear | Yes | Cloudy | No |
| – | C[CH2][Hg][S]c1ccccc1C(=O)[O-].[Na+] [Thiomersal] | – | – | Clear | Yes | Clear | Yes |
| – | Benzalkonium Chloride | – | – | Clear | Yes | Cloudy | No |
